The values that follow come from patent EP4497440A1, “USE OF 7-TRIFLUOROMETHYL-7ALPHA,25-DIHYDROXYCHOLESTEROL IN THE TREATMENT AND MODULATION OF AUTOIMMUNE AND INFLAMMATORY DISEASES OF THE NERVOUS SYSTEM AND NEURODEGENERATIVE DISEASES” (Gdanski Uniwersytet Medyczny, priority 2023, dated 2025).

Common to all, as to type: in vivo, mice
The subject of one assay is Ch25h, Cyp7b1, Hsd3b7. The assay is described as follows: mRNA level of synthesizing and degrading enzymes in the cerebellum, cuprizone model.
The test system of the next assay is CD4+ cells. In words: Cuprizone model: immunofluorescently tagged CD4+ cells in the central part of the corpus callosum. The conditions noted are these: after 14 days of treatment in the cuprizone model, group E. From the text: Measurement of the quantity of immunofluorescently-tagged CD4+ cells in the central part of the corpus callosum following 14 days of treatment in the cuprizone model (Fig 7). Morphology of mouse blood in the cuprizone model and the in vivo model testing short-term pharmacotherapy of oxysterol CF3-7α,25OHC (Fig 10).
A (Fig 7) control group: regular cuprizone-free chow for 9 weeks. Mice were euthanised after 9 weeks and tissue samples were taken for analysis. In these mice, myelin sheaths were not removed.
B (Fig 7) control group with cuprizone: chow containing cuprizone for 9 weeks. The mice were euthanised following 9 weeks and tissue samples were taken for analysis. In the mice fed with cuprizone-containing chow myelin sheaths were removed.
(§1) C (Fig 7) or #3 (Fig 8 and 9) vehicle control group - the mice were fed with chow containing cuprizone for 9 weeks, and then with regular chow without cuprizone for another 2 weeks. Over the 2 weeks on regular chow the mice in the vehicle control group were first injected vehicle #1: DMSO (intraperitoneal injection), 150 µl once a day, and then vehicle #2: canola oil, subcutaneously, 150 µl once a day.
E (Fig 7) or #5 experimental group with oxysterol CF3-7α,25OHC - the mice were fed with chow containing cuprizone for 9 weeks, and then with regular chow without cuprizone for another 2 weeks. […]

Another assay deals with white blood cells. In words: Cuprizone model: blood morphology (white blood cell counts). As for the experimental part:
as §1
#4 (Fig 8 and 9) barbadin control group - the mice were fed with chow containing cuprizone for 9 weeks, and then with regular chow without cuprizone for another 2 weeks. Over the 2 weeks on regular chow the mice in the group were injected barbadin 0.3 mg/kg, intraperitoneally, 150 µl once a day, and then vehicle #2: canola oil, subcutaneously, 150 µl once a day.
E (Fig 7) or #5 experimental group with oxysterol CF3-7α,25OHC - the mice were fed with chow containing cuprizone for 9 weeks, and then with regular chow without cuprizone for another 2 weeks. Over the 2 weeks on regular chow the mice in the group were injected vehicle #1: DMSO, intraperitoneally, 150 µl once a day, and CF3-7α,25OHC, dose: 20 mg/kg, subcutaneously, 150 µl once a day.
#6 (Fig 8 and 9) experimental group with barbadin + oxysterol CF3-7α,25OHC - the mice were fed with chow containing cuprizone for 9 weeks, and then with regular chow without cuprizone for another 2 weeks. Over the 2 weeks on regular chow the mice in the group were injected barbadin, 0.3 mg/kg, intraperitoneally, 150 µl once a day, and then one hour following the barbadin injection they were injected CF3-7α,25OHC, dose: 20 mg/kg, subcutaneously, 150 µl once a day.
The blood from the heart was sampled after the mice had been euthanised, and blood morphology test was performed using a standard diagnostic analyser. […] The lymphocyte count in peripheral blood of the mice which had been injected with CF3-7α,25OHC was lower by 50% compared to the control group of mice injected with vehicles (gr. #3 or C). The specific action of CF3-7α,25OHC leading to reduction of the lymphocyte count in blood finds confirmation in the results obtained for the mice of groups #4 (or D) and #6 (or F). Compared to the control group, the lymphocyte count in blood in the group of mice injected with barbadin (#4 or D) was lower only by 21%, and in the group of mice injected with barbadin + CF3-7α,25OHC by 7%. Following interaction with CF3-7α,25OHC, barbadin blocks internalisation of the EBI2 receptor from the cell membrane. The absence of any significant effect related to the treatment with barbadin or barbadin + CF3-7α,25OHC indicates a specific action of CF3-7α,25OHC on the EBI2 receptor and the consequential effects of that action, namely reduction of the count of circulating lymphocytes in blood. Moreover, the number of monocytes in group #5 (or E: mice treated with CF3-7α,25OHC) was lower by as much as 66% and the total leukocyte count (lymphocytes and monocytes included) was also substantially lower (by 51%), though only in the group of mice injected with CF3-7α,25OHC. In our subsequent in vivo tests (short-term pharmacology) we confirmed the action of CF3-7α,25OHC. In that test, too, it reduced the count of white blood cells. CF3-7α,25OHC reduces the lymphocyte count as early as following the 4 mg/kg dose and the effect lasts for 24 hours following administration.

Where [1] appears, read: after 14 days of treatment during remyelination in the cuprizone model.

Values joined by “and” are separate entries in the source; they are usually repeats but may differ in a detail not shown here. Equal values may be shown once. “Also recorded” adds a separate entry of the source.

Regarding `C[C@H](CCCC(C)(C)O)[C@H]1CC[C@H]2[C@H]3[C@H](CC[C@]12C)[C@@]1(C)CC[C@H](O)CC1=C[C@]3(O)C(F)(F)F` [CF3-7α,25OHC, cholestene-7β-trifluoromethyl,3β,7α,25-triol], in the assay with Ch25h, Cyp7b1, Hsd3b7, the “expression level of the synthesizing (Ch25h, Cyp7b1) and degrading (Hsd3b7) enzymes” value is listed as “does not regulate the expression level”. Moreover, the “count of CD4+ cells in the corpus callosum” value in the assay with CD4+ cells is reported as “fewest; also recorded: lowest count”. In the assay on white blood cells (setting [1]), this compound came in with a drop in eosinophils of 43%, a drop in monocytes of 66% and a drop in neutrophils of 14%. Further, the “drop in the total number of white blood cells (total leukocyte count)” value with white blood cells (after 14 days of treatment during remyelination in the cuprizone model, compared to vehicle group) was determined as 51%. Moreover, the “drop in lymphocytes (lymphocyte count in peripheral blood lower by)” value in the assay on white blood cells (after 14 days of treatment in the cuprizone model, CF3-7α,25OHC 20 mg/kg s.c., barbadin 0.3 mg/kg i.p., compared to vehicle group #3) is 51% and 50%. The “number of white blood cells (leukocytes, lymphocytes, monocytes)” value in the assay on white blood cells (cuprizone model, group #5 (E)) is recorded as “went down; also recorded: substantially reduced”.
